Assay results as given in patent US20020137929A1, “1 - (3-heterocyclylphenyl) isothiourea, -isourea, -guanidine and -amidine herbicidal agents” (Intellectual Property Department, BASF Aktiengesellschaft, priority 1998, published 2002).

Columns and labels:
[1] = tested on: AMBEL (Ragweed, Common); assay: Postemergence herbicidal evaluation; type: in vivo, Ambrosia artemisifolia; settings: postemergence
Outline: (§1)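 Scores (0–9) reflect plant stand, vigor, malformation, size, chlorosis and general appearance relative to control, read 4 to 5 weeks after treatment and averaged where tests were repeated. Application: about 0.0156–0.500 kg/ha sprayed at 40 psi onto two-week seedlings.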

[2] = tested on: CASOB (Sicklepod); assay: Postemergence herbicidal evaluation; type: in vivo, Cassia obtusifolia; settings: postemergence
Outline: as §1

[3] = tested on: CHEAL (Lambsquarters, Common); assay: Postemergence herbicidal evaluation; type: in vivo, Chenopodium album; settings: postemergence
Outline: as §1

[4] = tested on: GALAP (Galium); assay: Postemergence herbicidal evaluation; type: in vivo, Galium aparine; settings: postemergence
Outline: as §1

[5] = tested on: ECHCG (Barnyardgrass); assay: Postemergence herbicidal evaluation; type: in vivo, Echinochloa crus-galli; settings: postemergence
Outline: as §1

[6] = tested on: SETVI (Foxtail, Green); assay: Postemergence herbicidal evaluation; type: in vivo, Setaria viridis; settings: postemergence
Outline: as §1

[7] = tested on: GLXMAW (Soybean, Williams); assay: Postemergence herbicidal evaluation; type: in vivo, Glycine max, (L.) Merr. cv Williams; settings: postemergence
Outline: as §1

[8] = tested on: ORYSAT (Rice, Tebonnet); assay: Postemergence herbicidal evaluation; type: in vivo, Oryza sativa, (L.) Tebonnet; settings: postemergence
Outline: as §1

[9] = tested on: CASOB (Sicklepod); assay: Preemergence herbicidal evaluation; type: in vivo, Cassia obtusifolia; settings: rated 4-5 weeks after treatment
Outline: (§2)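 Scores (0–9) reflect visual comparison with control plants for stand, vigor, malformation, size and chlorosis. Compound was applied to the soil after sowing, before emergence, as an aqueous acetone spray (about 0.0156–0.500 kg/ha), and cups were kept in a greenhouse for 4–5 weeks.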

[10] = tested on: GALAP (Galium); assay: Preemergence herbicidal evaluation; type: in vivo, Galium aparine; settings: rated 4-5 weeks after treatment
Outline: as §2

[11] = tested on: ZEAMX (Corn, Field); assay: Preemergence herbicidal evaluation; type: in vivo, Zea mays; settings: rated 4-5 weeks after treatment
Outline: as §2

[12] = tested on: CYPIR (Rice Flatsedge); assay: Preemergence weed control under flooded paddy conditions; type: in vivo, Cyperus iria; settings: rated 3-4 weeks after treatment
Outline: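 Silt loam, seeds in top 0.5 cm; flood held 1.5-3 cm; test cpd as acetone/water 50/50 into flood water, ~0.0313-0.500 kg/ha a.i.; greenhouse 3-4 wk; visual 0-9 score vs control.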

[13] = tested on: CYPSE (Flatsedge); assay: as above; type: in vivo, Cyperus serotinus; settings: rated 3-4 weeks after treatment
Outline: (§3)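 Ratings on a 0-9 visual scale cover stand, vigor, malformation, size, chlorosis and overall appearance relative to a control, taken three to four weeks post-treatment. Application was into flood water over freshly sown silt loam at roughly 0.0313 to 0.500 kg/ha.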

[14] = tested on: SAGPY (Arrowhead (Pygmaea)); assay: as above; type: in vivo, Sagittaria pygmaea; settings: rated 3-4 weeks after treatment
Outline: as §3

`Cn1c(C(F)(F)F)cc(=O)n(-c2cc(N=C3SCC(=O)N3CC(F)(F)F)c(Cl)cc2F)c1=O` [Compound 163, 3-{4-Chloro-2-fluoro-5-{[4-oxo-3-(2,2,2-trifluoroethyl)-2-thiazolidinylidene]amino}phenyl}-1-methyl-6-(trifluoromethyl)-2,4(1H,3H)-pyrimidinedione] was tested, and the “herbicidal rating AMBEL” value ([1]; rate 0.0156 kg/ha) was 9.0, the “herbicidal rating AMBEL” value ([1]; rate 0.0313 kg/ha) was 9.0 and the “herbicidal rating AMBEL” value ([1]; rate 0.0625 kg/ha) was 9.0. The “herbicidal rating CASOB” value ([2]; rate 0.0156 kg/ha) was 0.0, the “herbicidal rating CASOB” value ([2]; rate 0.0313 kg/ha) was 0.0 and the “herbicidal rating CASOB” value ([2]; rate 0.0625 kg/ha) was 3.0. For the same compound, the “herbicidal rating CHEAL” value ([3]; rate 0.0156 kg/ha) was 9.0, the “herbicidal rating CHEAL” value ([3]; rate 0.0313 kg/ha) was 9.0 and the “herbicidal rating CHEAL” value ([3]; rate 0.0625 kg/ha) was 9.0. For the same compound, the “herbicidal rating GALAP” value ([4]; rate 0.0156 kg/ha) was 0.0, the “herbicidal rating GALAP” value ([4]; rate 0.0313 kg/ha) was 3.0 and the “herbicidal rating GALAP” value ([4]; rate 0.0625 kg/ha) was 5.0. The “herbicidal rating ECHCG” value ([5]; rate 0.0156 kg/ha) was 0.0, the “herbicidal rating ECHCG” value ([5]; rate 0.0313 kg/ha) was 0.0 and the “herbicidal rating ECHCG” value ([5]; rate 0.0625 kg/ha) was 1.0. For the same compound, the “herbicidal rating SETVI” value ([6]; rate 0.0156 kg/ha) was 0.0, the “herbicidal rating SETVI” value ([6]; rate 0.0625 kg/ha) was 3.0 and the “herbicidal rating GLXMAW” value ([7]; rate 0.0156 kg/ha) was 6.0. The “herbicidal rating GLXMAW” value ([7]; rate 0.0313 kg/ha) was 7.0, the “herbicidal rating GLXMAW” value ([7]; rate 0.0625 kg/ha) was 8.0 and the “herbicidal rating ORYSAT” value ([8]; rate 0.0156 kg/ha) was 1.0. The “herbicidal rating ORYSAT” value ([8]; rate 0.0313 kg/ha) was 1.5, the “herbicidal rating ORYSAT” value ([8]; rate 0.0625 kg/ha) was 2.0 and the “Preemergence herbicidal rating CASOB” value ([9]; 0.0156 kg/ha) was 0.0. The “Preemergence herbicidal rating CASOB” value ([9]; 0.0313 kg/ha) was 0.0, the “Preemergence herbicidal rating CASOB” value ([9]; 0.0625 kg/ha) was 0.0 and the “Preemergence herbicidal rating CASOB” value ([9]; 0.1250 kg/ha) was 0.0. The “Preemergence herbicidal rating CASOB” value ([9]; 0.2500 kg/ha) was 5.0, the “Preemergence herbicidal rating GALAP” value ([10]; 0.0156 kg/ha) was 0.0 and the “Preemergence herbicidal rating GALAP” value ([10]; 0.0313 kg/ha) was 0.0. For the same compound, the “Preemergence herbicidal rating GALAP” value ([10]; 0.0625 kg/ha) was 0.0, the “Preemergence herbicidal rating GALAP” value ([10]; 0.1250 kg/ha) was 0.0 and the “Preemergence herbicidal rating GALAP” value ([10]; 0.2500 kg/ha) was 3.0. For the same compound, the “Preemergence herbicidal rating ZEAMX” value ([11]; 0.0156 kg/ha) was 5.0, the “Preemergence herbicidal rating ZEAMX” value ([11]; 0.0313 kg/ha) was 5.0 and the “Preemergence herbicidal rating ZEAMX” value ([11]; 0.0625 kg/ha) was 7.0. The “Preemergence herbicidal rating ZEAMX” value ([11]; 0.1250 kg/ha) was 7.0, the “Preemergence herbicidal rating ZEAMX” value ([11]; 0.2500 kg/ha) was 8.0 and the “herbicidal effect rating, CYPIR” value ([12]; 0.0313 kg/ha) was 6.0. The “herbicidal effect rating, CYPIR” value ([12]; 0.0625 kg/ha) was 7.0, the “herbicidal effect rating, CYPIR” value ([12]; 0.1250 kg/ha) was 9.0 and the “herbicidal effect rating, CYPIR” value ([12]; 0.2500 kg/ha) was 9.0. For the same compound, the “herbicidal effect rating, CYPSE” value ([13]; 0.1250 kg/ha) was 9.0, the “herbicidal effect rating, CYPSE” value ([13]; 0.2500 kg/ha) was 9.0 and the “herbicidal effect rating, SAGPY” value ([14]; 0.0313 kg/ha) was 2.0. The “herbicidal effect rating, SAGPY” value ([14]; 0.0625 kg/ha) was 3.0, the “herbicidal effect rating, SAGPY” value ([14]; 0.1250 kg/ha) was 6.0 and the “herbicidal effect rating, SAGPY” value ([14]; 0.2500 kg/ha) was 7.0.
